Data published in patent publication US11180459B2, “Bacterial efflux pump inhibitors” (RUTGERS, THE STATE UNIVERSITY OF NEW JERSEY, priority 2017, dated 2021).
Where a name gives a salt, the structure may show the parent alone. Marks after values point to notes of the source that are not given here.

Assays:
[1] = system: Escherichia coli ATCC 25922; test: Standard EPI assay: clarithromycin MIC with EPI; assay type: cell-based; conditions: clarithromycin as antibiotic, E. coli ATCC 25922
Experimental: (§1) MIC assays were conducted in accordance with Clinical and Laboratory Standards Institute (CLSI) guidelines for broth microdilution.
(§2) The EPI assay for the purposes of these studies represents a MIC assay in which the MIC of the antibiotic against the bacteria is tested in the presence of an experimental efflux pump inhibitor (EPI). The highest concentration of the EPI present in the assay typically is ½ of the intrinsic MIC of the compound. If the intrinsic MIC of the EPI is greater than 100 μg/mL, the EPI assay was tested with 50 μg/mL. Using serial dilutions of the EPI, its enhancement of antibiotic activity was then evaluated. The relative EPI activity was decided by comparing the MIC of the antibiotic in the presence of the EPI compound with the intrinsic MIC of the antibiotic alone. For the evaluation of the efficacy of an EPI against bacteria that were pre-exposed to an antibiotic, the inoculum of bacteria that used was developed from a bacterial culture isolated as a single colony following exposure at ½ the MIIC of the antibiotic (so as to induce efflux pump expression), was to be used in combination with the EPI.
(§3) In our standard EPI assay, the MIC of the test antibiotic is determined in the absence and presence of sub-inhibitory concentrations of the EPI. Initially, the sub-inhibitory concentration used was ½×MIC of the EPI. […] The MIC of levofloxacin against P. aeruginosa ATCC 27853 in the absence of EPI is 1 μg/mL. […] Similar methodology was employed to examine the synergy with Escherichia coli ATCC 25922 in the presence of varied concentrations of these EPIs using clarithromycin as the antibiotic.

[2] = system: Pseudomonas aeruginosa ATCC 27853; test: Standard EPI assay: levofloxacin MIC with EPI; assay type: cell-based; conditions: P. aeruginosa ATCC 27853; for Enhanced Activity in P. aeruginosa (fold enhancement of antibiotic activity / EPI concentration): levofloxacin as antibiotic
Experimental: as §1, §2, §3

P. aeruginosa ATCC 27853 [3] = test: Intrinsic MIC assay (broth microdilution); assay type: cell-based; conditions: Pseudomonas aeruginosa
Experimental: as §1
The intrinsic MIC of the experimental EPIs was tested with the method described. The 2-fold serial dilution begins with 100 μg/mL of tested compound in the first column of the 96-well plates.

[4] = system: P. aeruginosa [ATCC 27853]; test: Mouse septicemia model of infection; assay type: in vivo, Swiss Webster female mice; conditions: Experiment #521, cefepime 10 mg/ml b.i.d.
Experimental: A general method for the in vivo assessment of bacterial EPIs is complicated by the fact that that both the antibiotic and the EPI need to be present for synergy to be achieved. A general method was discovered that has proven to be effective in establishing the relative efficacy of bacterial EPIs in a mouse septicemia model. The bacterial EPI is administered initially intravenously to mice with septicemia, followed 5 minutes later by the intravenous administration or oral administration of the antibiotic. A second administration of the EPI is then administered subcutaneously after an additional 5 minutes to act as a booster, followed by the final administration of the antibiotic either intravenously or orally after the second administration of the EPI. […] In a few instances, a second regiment of both EPI and antibiotic as administered on day 1 was required after 24 hours to affect cures.
Determination of the in vivo efficacy of bacterial efflux pump inhibitors (EPIs) can be efficiently determined using a mouse septicemia model of infection. The systemic infection is initiated by a 500 ul intraperitoneal injection of an inoculum containing bacteria (such as P. aeruginosa [ATCC 27853]) at a concentration of approximately 5×10^5 cells in 5% mucin in Swiss Webster female mice. […]

P. aeruginosa ATCC 27853 [5] = test: Pre-exposure bacterial EPI assay (MIC against bacteria pre-exposed to 1/2 x MIC antibiotic); assay type: cell-based; conditions: Pseudomonas aeruginosa, ATCC27853, read-out: MIC of cefepime against P. aeruginosa pre-exposed to cefepime
Excerpt: The principle underlying this pre-exposure is that exposure of the bacteria to sub-inhibitory concentrations of the test antibiotic will induce expression of efflux pumps, if any, and may represent the scenario in vivo more accurately.

NCCC[C@H](N)CNC(=O)c1nc2cc(-c3ccc(F)cc3)cc(C(F)(F)F)c2[nH]1 [Example 3, (S)—N-(2,5-diaminopentyl)-5-(4-fluorophenyl)-7-(trifluoromethyl)-1H-benzo[d]imidazole-2-carboxamide Dihydrochloride]
Enhanced Activity in E. coli (fold enhancement of antibiotic activity / EPI concentration) ([1]; EPI at 6.25 (μg)): 8×/6.25 | MIC of levofloxacin in the presence of EPI ([2]; 6.25 μg/mL of Example 3): 0.016 µg/mL | reduction of the MIC of levofloxacin relative to absence of EPI ([2]; 6.25 μg/mL of Example 3): 64 fold | Enhanced Activity in P. aeruginosa (fold enhancement of antibiotic activity / EPI concentration) ([2]; EPI at 12.5 (μg)): 64×/12.5 | MIC (P. aeruginosa ATCC 27853 [3]; ATCC27853, read-out: intrinsic MIC of the EPI): 25 µg/mL

NC[C@@H]1CN[C@H](CNC(=O)c2nc3cc(-c4ccc(F)cc4)ccc3[nH]2)C1 [Example 21, N-(((2S,4R)-4-(aminomethyl)pyrrolidin-2-yl)methyl)-5-(4-fluorophenyl)-1H-benzo[d]imidazole-2-carboxamide Dihydrochloride]
Enhanced Activity in E. coli (fold enhancement of antibiotic activity / EPI concentration) ([1]; EPI at 50 (μg)): 256×/50 | Enhanced Activity in P. aeruginosa (fold enhancement of antibiotic activity / EPI concentration) ([2]; EPI at 25 (μg)): 8×/25

NC[C@H]1CN[C@H](CNC(=O)c2nc3cc(-c4ccc(F)cc4)ccc3[nH]2)C1 [Example 22, N-(((2S,4S)-4-(aminomethyl)pyrrolidin-2-yl)methyl)-5-(4-fluorophenyl)-1H-benzo[d]imidazole-2-carboxamidedihydrochloride]
Enhanced Activity in E. coli (fold enhancement of antibiotic activity / EPI concentration) ([1]; EPI at 6.25 (μg)): 2×/6.25 | Enhanced Activity in P. aeruginosa (fold enhancement of antibiotic activity / EPI concentration) ([2]; EPI at 12.5 (μg)): 32×/12.5 | % Survival (72 hr) Antibiotic + EPI ([4]; 250 ul + Example 22 2.0 mg/ml b.i.d.): 75%

CO/N=C(\C(=O)N[C@@H]1C(=O)N2C(C(=O)[O-])=C(C[N+]3(C)CCCC3)CS[C@H]12)c1csc(N)n1 [cefepime, reference compound]
MIC (P. aeruginosa ATCC 27853 [5]): 16 µg/mL | % Survival (72 hr) Antibiotic Only ([4]; 250 ul): 25%*****

C[C@H]1COc2c(N3CCN(C)CC3)c(F)cc3c(=O)c(C(=O)O)cn1c23 [levofloxacin, reference compound]
MIC (P. aeruginosa ATCC 27853 [3]; ATCC27853, P. aeruginosa ATCC 27853, read-out: MIC of levofloxacin in the absence of EPI): 1 µg/mL
